Measurements from patent publication US10428082B2, “Triazole derivatives of melampomagnolide B and methods of use thereof” (BioVentures, LLC, priority 2016, dated 2019).

What was measured:
Experiment in all cases: NCI 60 growth inhibition
Assay type in all cases: cell-based, human
MCF7 = details: Homo sapiens; MCF7, Breast Cancer, Table 2
Experimental: (§1) The above triazole derivatives of melampomagnolide B were evaluated for growth inhibitory properties against an NCI panel of 60 human cancer cell lines derived from nine human cancer cell types, grouped into disease sub-panels that represent leukemia, lung, colon, central nervous system (CNS), melanoma, renal, ovary, breast, and prostate cancer cells. Growth inhibitory (GI50) effects were measured as a function of the variation of optical density as a percentage of control.

UACC-257 = details: Homo sapiens; UACC-257, Melanoma, Table 2
Experimental: as §1

RPMI-8226 = details: Homo sapiens; RPMI-8226, Leukemia, Table 2
Experimental: as §1

TK-10 = details: Homo sapiens; TK-10, Renal Cancer, Table 2
Experimental: as §1

HCC-2998 = details: Homo sapiens; HCC-2998, Colon Cancer, Table 2
Experimental: as §1

KM12 = details: Homo sapiens; KM12, Colon Cancer, Table 2
Experimental: as §1

IGROV1 = details: Homo sapiens, IGROV-1; IGROV1, Ovarian Cancer, Table 2
Experimental: as §1

SF-295 = details: Homo sapiens; SF-295, CNS Cancer, Table 2
Experimental: as §1

HCT-116 = details: Homo sapiens; HCT-116, Colon Cancer, Table 2
Experimental: as §1

A549/ATCC = details: Homo sapiens, Non-Small Cell Lung Cancer, Table 2
Experimental: as §1

HOP-62 = details: Homo sapiens; HOP-62, Non-Small Cell Lung Cancer, Table 2
Experimental: as §1

HL-60(TB) = details: Homo sapiens; HL-60(TB), Leukemia, Table 2
Experimental: as §1

LOX IMVI = details: Homo sapiens, Melanoma, Table 2
Experimental: as §1

T-47D = details: Homo sapiens, T47D, Breast Cancer, Table 2
Experimental: as §1

NCI-H226 = details: Homo sapiens; NCI-H226, Non-Small Cell Lung Cancer, Table 2
Experimental: as §1

DU-145 = details: Homo sapiens; DU-145, Prostate Cancer, Table 2
Experimental: as §1

SK-MEL-2 = details: Homo sapiens; SK-MEL-2, Melanoma, Table 2
Experimental: as §1

SR = details: Homo sapiens, Leukemia, Table 2
Experimental: as §1

HCT-15 = details: Homo sapiens; HCT-15, Colon Cancer, Table 2
Experimental: as §1

HOP-92 = details: Homo sapiens; HOP-92, Non-Small Cell Lung Cancer, Table 2
Experimental: as §1

SK-MEL-5 = details: Homo sapiens; SK-MEL-5, Melanoma, Table 2
Experimental: as §1

COLO 205 = details: Homo sapiens; COLO 205, Colon Cancer, Table 2
Experimental: as §1

U251 = details: Homo sapiens, U-251; U251, CNS Cancer, Table 2
Experimental: as §1

A498 = details: Homo sapiens; A498, Renal Cancer, Table 2
Experimental: as §1

CAKI-1 = details: Homo sapiens; CAKI-1, Renal Cancer, Table 2
Experimental: as §1

SN12C = details: Homo sapiens, Renal Cancer, Table 2
Experimental: as §1

OVCAR-3 = details: Homo sapiens; OVCAR-3, Ovarian Cancer, Table 2
Experimental: as §1

NCI-H522 = details: Homo sapiens; NCI-H522, Non-Small Cell Lung Cancer, Table 2
Experimental: as §1

OVCAR-8 = details: Homo sapiens; OVCAR-8, Ovarian Cancer, Table 2
Experimental: as §1

PC-3 = details: Homo sapiens; PC-3, Prostate Cancer, Table 2
Experimental: as §1

HS 578T = details: Homo sapiens, Breast Cancer, Table 2
Experimental: as §1

OVCAR-4 = details: Homo sapiens; OVCAR-4, Ovarian Cancer, Table 2
Experimental: as §1

M14 = details: Homo sapiens; M14, Melanoma, Table 2
Experimental: as §1

NCI/ADR-RES = details: Homo sapiens, Ovarian Cancer, Table 2
Experimental: as §1

786-0 = details: Homo sapiens; 786-0, Renal Cancer, Table 2
Experimental: as §1

UACC-62 = details: Homo sapiens; UACC-62, Melanoma, Table 2
Experimental: as §1

NCI-H460 = details: Homo sapiens; NCI-H460, Non-Small Cell Lung Cancer, Table 2
Experimental: as §1

UO-31 = details: Homo sapiens; UO-31, Renal Cancer, Table 2
Experimental: as §1

EKVX = details: Homo sapiens, Non-Small Cell Lung Cancer, Table 2
Experimental: as §1

NCI-H322M = details: Homo sapiens, Non-Small Cell Lung Cancer, Table 2
Experimental: as §1

## C=C1C(=O)O[C@H]2[C@H]1CC/C(Cn1cc(-c3ccccc3)nn1)=C\CC[C@@]1(C)O[C@@H]21 [JVM 3-74, (1aR,7aS,10aS,10bS,E)-1a-Methyl-8-methylene-5-((4-phenyl-1H-1,2,3-triazol-1-yl)methyl)-2,3,6,7,7a,8,10a,10b-octahydrooxireno[2′,3′:9,10]cyclodeca[1,2-b]furan-9(1aH)-one]
MCF7
  GI50: 1080 nM
UACC-257
  GI50: 3780 nM
RPMI-8226
  GI50: 1710 nM
TK-10
  GI50: 1210 nM
HCC-2998
  GI50: 6160 nM
KM12
  GI50: 8480 nM
IGROV1
  GI50: 6950 nM
SF-295
  GI50: 7890 nM
HCT-116
  GI50: 1170 nM
A549/ATCC
  GI50: 5880 nM
HOP-62
  GI50: 7410 nM
HL-60(TB)
  GI50: 1490 nM
LOX IMVI
  GI50: 800 nM
T-47D
  GI50: 1300 nM
NCI-H226
  GI50: 4600 nM
DU-145
  GI50: 2190 nM
SK-MEL-2
  GI50: 5500 nM
SR
  GI50: 1060 nM
HCT-15
  GI50: 770 nM
HOP-92
  GI50: 1420 nM
SK-MEL-5
  GI50: 7320 nM
COLO 205
  GI50: 1080 nM
U251
  GI50: 7960 nM
A498
  GI50: 7800 nM
CAKI-1
  GI50: 1280 nM
SN12C
  GI50: 4500 nM
OVCAR-3
  GI50: 1400 nM
NCI-H522
  GI50: 810 nM
OVCAR-8
  GI50: 2310 nM
PC-3
  GI50: 5650 nM
HS 578T
  GI50: 9780 nM
OVCAR-4
  GI50: 3220 nM
M14
  GI50: 1780 nM
NCI/ADR-RES
  GI50: 6170 nM
786-0
  GI50: 2630 nM
UACC-62
  GI50: 1870 nM
NCI-H460
  GI50: 7740 nM
UO-31
  GI50: 870 nM
EKVX
  GI50: 6870 nM
NCI-H322M
  GI50: 7790 nM

## C=C1C(=O)O[C@H]2[C@H]1CC/C(Cn1cc(-c3ccc(OC)cc3)nn1)=C\CC[C@@]1(C)O[C@@H]21 [JVM 4-24, (1aR,7aS,10aS,10bS,E)-5((4-(4-Methoxyphenyl)-1H-1,2,3-triazol-1-yl)methyl)-1a-methyl-8-methylene-2,3,6,7,7a,8,10a,10b-octahydrooxireno[2′,3′:9,10]cyclodeca[1,2-b]furan-9(1aH)-one]
MCF7
  GI50: 420 nM
UACC-257
  GI50: 1780 nM
RPMI-8226
  GI50: 1870 nM
TK-10
  GI50: 1420 nM
HCC-2998
  GI50: 1980 nM
KM12
  GI50: 3510 nM
IGROV1
  GI50: 1350 nM
SF-295
  GI50: 11000 nM
HCT-116
  GI50: 480 nM
A549/ATCC
  GI50: 10900 nM
HOP-62
  GI50: 10500 nM
HL-60(TB)
  GI50: 1170 nM
LOX IMVI
  GI50: 1160 nM
T-47D
  GI50: 1430 nM
NCI-H226
  GI50: 1990 nM
DU-145
  GI50: 1110 nM
SK-MEL-2
  GI50: 1950 nM
SR
  GI50: 250 nM
HCT-15
  GI50: 330 nM
HOP-92
  GI50: 1130 nM
SK-MEL-5
  GI50: 2100 nM
COLO 205
  GI50: 500 nM
U251
  GI50: 9450 nM
A498
  GI50: 2350 nM
CAKI-1
  GI50: 1030 nM
SN12C
  GI50: 1960 nM
OVCAR-3
  GI50: 560 nM
NCI-H522
  GI50: 380 nM
OVCAR-8
  GI50: 2590 nM
PC-3
  GI50: 9350 nM
HS 578T
  GI50: 7420 nM
OVCAR-4
  GI50: 1520 nM
M14
  GI50: 1300 nM
NCI/ADR-RES
  GI50: 3080 nM
786-0
  GI50: 1240 nM
UACC-62
  GI50: 1350 nM
NCI-H460
  GI50: 8450 nM
UO-31
  GI50: 1270 nM
EKVX
  GI50: 2470 nM
NCI-H322M
  GI50: 10700 nM
